Measurements as given in PMC2673211, “Nitric oxide activates ATP-sensitive potassium channels in mammalian sensory neurons: action by direct S-nitrosylation” (Molecular Pain, 2009).
Each block holds one compound with its values, some of them ahead of it.

Key:
[1] = target: T1, KATP channels in large DRG neurons (Rattus norvegicus, UniProt P70673+Q09429); test: Excised inside-out (cell-free) patch-clamp recording of KATP channel activity; assay type: biochemical
T1 construct: native KATP channels in large DRG neurons; endogenous in cells; host or cells: acutely dissociated large-diameter neurons from rat L4/L5 dorsal root ganglia (sham-operated or spinal nerve ligated animals)
T1 sequence (Q09429 whole entry): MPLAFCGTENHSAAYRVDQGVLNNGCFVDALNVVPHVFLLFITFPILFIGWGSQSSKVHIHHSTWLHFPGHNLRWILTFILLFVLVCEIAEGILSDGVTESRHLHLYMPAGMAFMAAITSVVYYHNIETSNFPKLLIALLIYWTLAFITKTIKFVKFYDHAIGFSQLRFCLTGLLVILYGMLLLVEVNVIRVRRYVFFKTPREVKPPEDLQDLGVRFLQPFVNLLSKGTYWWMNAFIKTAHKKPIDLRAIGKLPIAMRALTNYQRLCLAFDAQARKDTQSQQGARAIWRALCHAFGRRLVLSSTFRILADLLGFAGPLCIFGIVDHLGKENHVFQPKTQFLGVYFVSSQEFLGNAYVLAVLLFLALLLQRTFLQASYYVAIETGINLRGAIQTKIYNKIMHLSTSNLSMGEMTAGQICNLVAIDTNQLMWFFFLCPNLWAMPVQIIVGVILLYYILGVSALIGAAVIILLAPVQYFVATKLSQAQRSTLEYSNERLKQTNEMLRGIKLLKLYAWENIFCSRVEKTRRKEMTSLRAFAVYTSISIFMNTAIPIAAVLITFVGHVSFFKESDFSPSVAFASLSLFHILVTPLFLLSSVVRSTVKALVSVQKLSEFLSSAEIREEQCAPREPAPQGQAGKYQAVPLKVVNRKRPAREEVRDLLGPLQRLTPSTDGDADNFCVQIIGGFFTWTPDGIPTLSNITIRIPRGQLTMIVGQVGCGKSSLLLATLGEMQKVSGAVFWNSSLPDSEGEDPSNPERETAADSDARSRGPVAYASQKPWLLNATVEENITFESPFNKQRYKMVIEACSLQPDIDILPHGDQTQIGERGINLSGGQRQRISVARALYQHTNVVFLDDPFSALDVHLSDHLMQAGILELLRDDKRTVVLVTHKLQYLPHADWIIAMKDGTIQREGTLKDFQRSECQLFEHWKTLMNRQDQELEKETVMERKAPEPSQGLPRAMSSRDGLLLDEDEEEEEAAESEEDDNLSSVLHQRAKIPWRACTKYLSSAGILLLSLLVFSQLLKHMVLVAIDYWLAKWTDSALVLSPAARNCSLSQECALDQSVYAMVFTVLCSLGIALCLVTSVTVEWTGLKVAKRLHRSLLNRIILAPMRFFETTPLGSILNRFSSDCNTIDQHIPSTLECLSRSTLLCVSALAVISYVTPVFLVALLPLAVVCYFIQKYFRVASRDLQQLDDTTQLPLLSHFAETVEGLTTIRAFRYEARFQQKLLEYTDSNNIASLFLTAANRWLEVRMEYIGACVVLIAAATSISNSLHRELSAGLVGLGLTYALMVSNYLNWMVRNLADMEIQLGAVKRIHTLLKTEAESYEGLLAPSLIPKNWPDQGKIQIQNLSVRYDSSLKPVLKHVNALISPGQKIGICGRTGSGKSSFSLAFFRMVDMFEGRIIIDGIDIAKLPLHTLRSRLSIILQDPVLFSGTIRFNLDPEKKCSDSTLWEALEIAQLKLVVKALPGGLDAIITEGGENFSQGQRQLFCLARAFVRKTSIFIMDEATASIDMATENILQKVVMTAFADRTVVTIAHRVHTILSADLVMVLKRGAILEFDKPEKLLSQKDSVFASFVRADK
T1 sequence (P70673 whole entry): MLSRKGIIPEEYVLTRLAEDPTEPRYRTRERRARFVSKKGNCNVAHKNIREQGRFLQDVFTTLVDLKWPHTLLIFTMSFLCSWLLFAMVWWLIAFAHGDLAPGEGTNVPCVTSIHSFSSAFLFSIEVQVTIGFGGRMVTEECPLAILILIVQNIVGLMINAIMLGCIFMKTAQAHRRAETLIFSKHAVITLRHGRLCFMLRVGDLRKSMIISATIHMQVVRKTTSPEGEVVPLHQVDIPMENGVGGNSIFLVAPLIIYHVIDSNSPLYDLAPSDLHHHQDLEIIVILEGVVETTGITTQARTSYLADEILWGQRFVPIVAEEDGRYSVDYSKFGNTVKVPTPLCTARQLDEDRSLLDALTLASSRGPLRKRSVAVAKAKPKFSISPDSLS
From the text: (§1) We harvested control (L4 and L5) or axotomized (L5) ganglia, from control (SS) or hyperalgesic rats (SNL) respectively, between the 17th and 28th postoperative days. We sacrificed animals by decapitation under deep isoflurane anesthesia, excised ganglia through a lumbar incision, and at the same time confirmed accuracy of initial surgery.
For patch-clamp recordings, we placed excised DRG into separate 35 mm Petri dishes containing cold, oxygenated, Hanks Balanced Salt Solution (Gibko, Invitrogen, Grand Islan, NY), and minced them with iris scissors. We dissociated ganglia enzymatically in a solution containing 0.25 ml 0.05% w:v liberase blendzyme 2 (Roche Diagnostics Corp., Indianapolis, IN) and 0.25 ml DMEM/F12 with glutaMAX (Dulbecco's modified Eagle's medium F12; Gibco, Invitrogen Corp., Carlsbad, CA) in an incubator at 37°C for 30 min. We then removed the supernatant after centrifugation and re-incubated cells at 37°C for another 30 min in 0.2 ml 0.0625% trypsin (Sigma, St. Louis, MO) and 0.0125% deoxyribonuclease 1 (150,000 U, Sigma, St. Louis, MO) in 0.25 ml DMEM. We then isolated cells by centrifugation (600 rpm for 5 min) after adding 0.25 ml trypsin inhibitor 0.1% w:v (Sigma St. Louis, MO), and re-suspended them in a culture medium consisting of 0.5 mM glutamine, 0.02 mg/ml gentamicin (Gibco, Invitrogen Corp., Carlsbad, CA), 100 ng/ml nerve growth factor 7S (Alomone Labs, Jerusalem, Israel), 2% (vol/vol) B-27 supplement (Gibco, Invitrogen Corp., Carlsbad, CA), and 98% (vol/vol) neural basal medium A (Gibco, Invitrogen Corp., Carlsbad, CA). Finally, we plated cells onto poly-l-lysine-coated 12-mm glass coverslips (Deutsche Spiegelglas; Carolina Biologic Supply, Burlington, NC), kept them in a humidified incubator at 37°C with 95% air and 5% CO2, and studied them within 3–8 h of dissociation.
We visualized plated neurons using an inverted Nikon Diaphot 300 microscope with Hoffman modulation optic system. We selected only large diameter neuronal somata (≥ 40 μm in diameter) because we have previously shown that only these develop KATP current alterations, as well as changes indicative of increased excitability after painful-like nerve injury by SNL [74]. Large neuronal somata, roughly correspond to large, myelinated Aβ fibers.
(§2) We recorded current passing through single channels in inside-out or cell-attached patch configurations. In cell-attached patches, both bath and pipette (extracellular) solutions were composed of the following: 140 mM KCl, 10 mM HEPES, 5.5 mM dextrose, and 1 mM EGTA. In inside-out patches, the bath (intracellular) solution contained 140 mM KCl, 1.2 mM MgCl2, 10 mM HEPES, 1.5 mM EGTA and 5.5 mM dextrose. The pipette (extracellular) solution was of the same composition as that used in cell-attached recordings. The pH of all solutions was adjusted to 7.4 with KOH. Osmolality was adjusted approximately to 300 mOsm/l by adding sucrose if necessary. We pulled patch micropipettes from borosilicate glass capillaries using a Flaming/Brown micropipette puller, model P-97 (Sutter, San Rafael, CA) and flame polished them with a microforge polisher (Narishige, Tokyo, Japan) prior to use. Their resistance ranged between 3 and 6 MΩ when filled with the internal solution, and placed into the recording solutions.
(§3) We recorded single channel currents at room temperature (20–25°C) using an Axon CNS Multiclamp 700B amplifier, digitized them using an analog-to-digital converter (Axon CNS DigiData 1440A; Axon Instruments, Foster, CA), and stored them into a PC. Sampling frequency of single-channel data was 5 KHz with a low-pass filter (1 KHz). We used pClamp version 10.2 software (Axon Instruments) for data acquisition and analysis. We applied a conventional 50% current amplitude threshold level criterion to determine open events. Channel open probability (Po) was determined from the ratios of the area under the peaks in the amplitude histograms fitted by a Gaussian distribution. […]

[2] = target: T2, SUR1-C717S/Kir6.2 channels (Rattus norvegicus, UniProt P70673+Q09429, C717S); test: Inside-out patch recording of mutated channels expressed in COS7 cells; assay type: biochemical; settings: DTT 5 mM; n = 7
T2 construct: A full-length Kir cDNA and a full-length SUR cDNA were subcloned into the mammalian expression vector; expressed in transfected cells; host or cells: COS7 cells, pcDNA3.1(-) vectors, GFP cDNA co-transfected as a separate reporter
T2 sequence (Q09429 whole entry C717S): as the sequence (Q09429 whole entry) above, with C717S counted along it
T2 sequence (P70673 whole entry): as the sequence (P70673 whole entry) above
Protocol: (§4) KATP channel-deficient COS7 cells were plated at a density of 3 × 10^5/dish (35 mm in diameter) and cultured in Dulbecco's modified Eagle's medium supplemented with 10% fetal calf serum. Rat Kir6.2 (GenBank X97041) and rat SUR1 (GenBank X97279) cDNAs were used for expression study. A truncated form of Kir6.2 lacking the last 36 amino acids at the C-terminus was obtained by polymerase chain reaction amplification. Polymerase chain reaction products were cloned into the pCR3.1 vector by using the TA cloning system (Invitrogen Corp., Carlsbad, CA, USA) and then cloned into the pcDNA3.1 (-) vector (Invitrogen Corp.) for mammalian expression. Point mutation of cysteine at position 717 (C717), C806, C1378, C1446, and C1491 within SUR1 to serine (C717S, C806S, C1378S, C1446S, and C1491S) was performed by using the Site-Directed Mutagenesis system (Invitrogen Corp.). All cDNA products were sequenced by using the BigDye terminator cycle sequencing kit and an ABI PRISM 377 DNA sequencer (Applied Biosystems, Foster City, CA) to confirm the sequence. A full-length Kir cDNA and a full-length SUR cDNA were subcloned into the mammalian expression vector pcDNA3.1 (-). For electrophysiological recordings, either wild-type or mutated pcDNA3.1 (-) Kir6.2 alone (1 μg), or pcDNA3.1 (-) Kir6.2 (1 μg) plus pcDNA3.1 (-) SUR1 (3 μg) were transfected into COS7 cells with green fluorescent protein cDNA as a reporter gene by using lipofectamine and Opti-MEN 1 reagents (Life Technologies Inc., Rockville, MD) according to the manufacturer's instructions. After transfection, cells were cultured at 37°C with 95% air and 5% CO2 for 48–72 h before being subjected to electrophysiological recordings.
as §2
as §3, with “We applied a conventional 50% current amplitude threshold level criterion to determine open events.” left out, “distribution. We calculated channel activity as NPo (where N is the number of observed channels in the patch) from data samples of either 30 s (in inside-out recordings), or 60 s (in cell-attached recordings), in the steady state.” for “distribution.”

[3] = target: T3, wild-type SUR1/Kir6.2 channels (Rattus norvegicus, UniProt P70673+Q09429); test: Inside-out patch recording of recombinant wild-type channels expressed in COS7 cells; assay type: biochemical
T3 construct: A full-length Kir cDNA and a full-length SUR cDNA were subcloned into the mammalian expression vector; expressed in transfected cells; host or cells: COS7 cells (KATP channel-deficient), pcDNA3.1(-) vectors, GFP cDNA co-transfected as a separate reporter
T3 sequence (Q09429 whole entry): as the sequence (Q09429 whole entry) above
T3 sequence (P70673 whole entry): as the sequence (P70673 whole entry) above
Protocol: as §4, §2
as §3, with “We applied a conventional 50% current amplitude threshold level criterion to determine open events.” left out, “distribution. We calculated channel activity as NPo (where N is the number of observed channels in the patch) from data samples of either 30 s (in inside-out recordings), or 60 s (in cell-attached recordings), in the steady state.” for “distribution.”

[4] = target: T1, KATP channels in large DRG neurons; test: Cell-attached single-channel patch-clamp recording of KATP channel activity (NPo); assay type: cell-based; settings: for NPo, DNP-induced channel opening: DNP 100 μM bath application, -60 mV; for NPo 10 min after SNAP following pretreatment with KT 5823: KT 5823 1 μM for 20 min; for NPo 10 min after SNAP following pretreatment with KT 5823 / NPo 10 min after SNAP following pretreatment with ODQ: then SNAP 100 μM; for baseline NPo after pretreatment with L-NAME: L-NAME 100 μM for 20 minutes; for NPo 10 min after SNAP following pretreatment with ODQ: ODQ 10 μM for 20 min
From the text: as §1
For patch-clamp recordings, we placed excised DRG into separate 35 mm Petri dishes containing cold, oxygenated, Hanks Balanced Salt Solution (Gibko, Invitrogen, Grand Islan, NY), and minced them with iris scissors. We dissociated ganglia enzymatically in a solution containing 0.25 ml 0.05% w:v liberase blendzyme 2 (Roche Diagnostics Corp., Indianapolis, IN) and 0.25 ml DMEM/F12 with glutaMAX (Dulbecco's modified Eagle's medium F12; Gibco, Invitrogen Corp., Carlsbad, CA) in an incubator at 37°C for 30 min. […] Finally, we plated cells onto poly-l-lysine-coated 12-mm glass coverslips (Deutsche Spiegelglas; Carolina Biologic Supply, Burlington, NC), kept them in a humidified incubator at 37°C with 95% air and 5% CO2, and studied them within 3–8 h of dissociation.
We visualized plated neurons using an inverted Nikon Diaphot 300 microscope with Hoffman modulation optic system. […] Large neuronal somata, roughly correspond to large, myelinated Aβ fibers.
as §2
Sampling frequency of single-channel data was 5 KHz with a low-pass filter (1 KHz). […] We applied a conventional 50% current amplitude threshold level criterion to determine open events. Channel open probability (Po) was determined from the ratios of the area under the peaks in the amplitude histograms fitted by a Gaussian distribution. We calculated channel activity as NPo (where N is the number of observed channels in the patch) from data samples of either 30 s (in inside-out recordings), or 60 s (in cell-attached recordings), in the steady state. In inside-out recordings, NPo of the KATP channels was normalized to the baseline NPo value obtained before test drugs at bathing solution without ATP (indicating relative channel activity).

[5] = agent alone, vs. baseline/control

Compound: Nc1nc2c(nc(Br)n2[C@@H]2O[C@@H]3COP(=O)([O-])O[C@H]3[C@H]2O)c(=O)[nH]1.[Na+] [8-Br-cGMP, 8-bromo-cGMP sodium salt]
time to steady-state activation after exposure ([4]; 8-Br-cGMP 100 μM): 2 to 3 min | effect when applied after SNAP-induced steady-state activation ([4]; 8-Br-cGMP at least 5 min after SNAP 100 μM, SS and SNL neurons, n = 5 each): additional further channel opening | NPo 5 min after application of 8-Br-cGMP ([4]; SNL neurons, 8-Br-cGMP 100 μM, n = 7): 0.17 ± 0.06 | NPo 5 min after application of 8-Br-cGMP ([4]; SS neurons, 8-Br-cGMP 100 μM, n = 8): 0.22 ± 0.08

Compound: O=[N+]([O-])c1ccc(O)c([N+](=O)[O-])c1 [DNP, 2,4-Dinitrophenol]
NPo, DNP-induced channel opening ([4]; SNL neurons, n = 8): 0.208 ± 0.16 | NPo, DNP-induced channel opening ([4]; SS neurons, n = 8): 0.442 ± 0.26 | direct effect on KATP channels in inside-out patches ([1]; DNP 100 μM, SS and SNL, vs. baseline): no direct effect

Compound: COC(=O)[C@@]1(OC)C[C@H]2O[C@]1(C)n1c3ccccc3c3c4c(c5c6ccccc6n2c5c31)C(=O)N(C)C4 [KT 5823]
effect of pretreatment on 8-Br-cGMP-induced KATP channel activation ([4]; KT 5823, SS and SNL neurons): significantly reduces | NPo 10 min after SNAP following pretreatment with KT 5823 ([4]; SNL neurons, n = 6): 0.26 ± 0.19 | NPo 10 min after SNAP following pretreatment with KT 5823 ([4]; SS neurons, n = 5): 0.14 ± 0.17 | direct effect on KATP channels in inside-out patches [1, 5]: neither ODQ nor KT 5823 had any direct effect

Compound: CCN1C(=O)C=CC1=O [NEM, N-ethylmaleimide]
effect on basal channel activity ([1]; NEM 5 mM, 1 mM [ATP]i, n = 6): significantly decreased | effect on the activating effect of SNAP on KATP channels ([1]; SS neurons, NEM 5 mM before SNAP 100 μM, 1 mM [ATP]i, n = 6): completely eliminated

Compound: nitric oxide [NO]
potency of direct activation of cloned channels relative to native channels (less potent) ([3]; cloned SUR1/Kir6.2 in COS7 cells vs. native channels in DRG neurons): approximately 3 fold

Continued, in another order:

effect on SNAP-induced KATP channel activation ([1]; SS neurons, DTT 5 mM after SNAP 100 μM, 1 mM [ATP]i, n = 7): completely reversed | direct effect on KATP channels in inside-out patches [1, 5]: no direct effect | effect on SNAP-induced channel activation [2]: reversed | effect on SNAP-activated currents ([3]; DTT 5 mM after SNAP 1 mM): almost completely suppressed
Compound: O[C@@H](CS)[C@@H](O)CS (racemic) [DTT, di-thiothreitol]

baseline NPo after pretreatment with L-NAME ([4]; SNL neurons, n = 7): 0.06 ± 0.04 | baseline NPo after pretreatment with L-NAME ([4]; SS neurons, n = 7): 0.114 ± 0.06 | direct effect on KATP channels in inside-out patches [1, 5]: no direct effect
Compound: COC(=O)[C@@H](N)CCCNC(N)=N[N+](=O)[O-] [L-NAME, NG-nitro-L-arginine methyl ester]

NPo 10 min after SNAP following pretreatment with ODQ ([4]; SNL neurons, n = 6): 0.27 ± 0.16 | NPo 10 min after SNAP following pretreatment with ODQ ([4]; SS neurons, n = 6): 0.25 ± 0.09
Compound: O=c1onc2cnc3ccccc3n12 [ODQ, 1H-[1,2, 4] oxadiazolo [4,3-a] quinoxalin-1-one]
direct effect on KATP channels in inside-out patches [1, 5]: neither ODQ nor KT 5823 had any direct effect

effect on KATP channel activity ([4]; zaprinast, control and SNL neurons, data not shown): no effect
Compound: CCCOc1ccccc1-c1nc2nn[nH]c2c(=O)[nH]1 [zaprinast]
